Measured values reported in patent publication US20060116325A1, “Methods and compositions for inhibiting hiv-coreceptor interactions” (priority 2001, published 2006).

Target: CXCR4 (Homo sapiens, UniProt P61073)
Test: Competition with 125I-SDF-1α binding to CEMx174 cells
Parameters: host or cells: CEMx174 (174xCEM)
Conditions: room temperature, 0.1% sodium azide, FIG. 7B, 7C
Description: FIGS. 7A through 7C depicts the inhibition of chemokine receptor ligand binding by peptide pre-treatment. FIG. 7A. Effect of pre-treatment with peptides 15K and 15D on the binding of MIP-1β to SupT1/CCR5 cells; FIG. 7B. Effect of pre-treatment with peptides 15K and 1SD on the binding of SDF-1α to CEMx174 cells; and FIG. 7C. Effect of pre-treatment with 15K and control peptide 15GIG on the binding of SDF-1α to CEmx174 cells. Binding studies were performed as described in Materials and Methods.
Binding assays were performed with HEK-CCR5 or HEK CXCR4 in triplicate by adding unlabeled competitor (anti-coreceptor binding peptide or control chemokine) and radiolabeled chemokine, 0.2 ng/ml (^125I-MIP-1β or SDF-1α, specific activity 2000 Ci/mmol, NEN Life Science Products) to a cell suspension (4×10^5 cells in 200 μl) in RPMI 1640 supplemented with 1% bovine serum albumin and 25 mM HEPES pH 8.0 (binding medium). Cells were then incubated at 22° C. for 40 min with continuous rotation. After incubation cells were transferred to the tubes containing 800 μl of 10% sucrose in PBS and harvested by centrifugation. The supernatant was aspirated and the cell-associated radioactivity was measured using a 1272 Wallac gamma counter. Binding assays were performed with the 174xCEM and Sup-T1 cells expressing CCR5 in duplicates by adding unlabeled competitor (peptide or control chemokine) and radiolabeled chemokine, 0.2 ng/ml (^125I-MIP-1β or ^125I-SDF-1α, specific activity 2000 Ci/mmol, NEN life Science Products) to 300 μl cell suspension (4×10^6 cells/ml) in RPMI 1640 supplemented with 1% bovine serum albumin, 0.1% sodium azide and 25 mM HEPES pH 8.0 (binding medium). Cells were then incubated at 22° C. for 30 min with continuous rotation. After incubation cells were transferred to the tubes containing 800 μl of 10% sucrose in PBS and harvested by centrifugation, the supematant was aspirated and the cell-associated radioactivity was measured using a 1272 Wallac gamma counter. The data were analyzed by nonlinear regression using the computer program GraphPad Prizm 3.0. […]

CXCR4, sequence (P61073 whole entry): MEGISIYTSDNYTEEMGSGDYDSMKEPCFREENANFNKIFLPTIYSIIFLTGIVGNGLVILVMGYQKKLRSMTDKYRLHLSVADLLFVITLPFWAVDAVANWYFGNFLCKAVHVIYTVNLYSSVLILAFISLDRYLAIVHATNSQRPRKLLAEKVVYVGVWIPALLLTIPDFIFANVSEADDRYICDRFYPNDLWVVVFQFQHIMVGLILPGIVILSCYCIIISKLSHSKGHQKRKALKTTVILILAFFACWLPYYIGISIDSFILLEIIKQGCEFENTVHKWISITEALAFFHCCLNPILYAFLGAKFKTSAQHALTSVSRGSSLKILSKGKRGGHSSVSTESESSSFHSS

## I R K A H C N I S R A D W N D [Peptide 15D]
  inhibition of SDF-1α binding to CXCR4: competitively inhibited chemokine binding

## IRKAHCNISRAKWND [Peptide 15K]
  inhibition of SDF-1α binding to CXCR4: competitively inhibited chemokine binding
